# Experimental data: PubChem BioAssay (NCI)
# “And” between values parts separate entries of the source, which are not always exact repeats. Equal entries are not always repeated.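 Exposure lasted 48 hours, with cells grown in 96-well plates and compounds tested at five concentrations. The concentration for 50% growth inhibition is given as GI50. TGI denotes the concentration required for complete inhibition of growth.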
# Columns and labels:
# Experiment in all cases: DTP human tumour cell line panel, 48 h
# KM20L2 colon = test system: KM20L2 colon
# HOP-62 NSCLC = test system: HOP-62 NSCLC
# HCC-2998 colon = test system: HCC-2998 colon
# SNB-78 CNS = test system: SNB-78 CNS
# U251 CNS = test system: U251 CNS
# MALME-3M melanoma = test system: MALME-3M melanoma
# SK-MEL-28 melanoma = test system: SK-MEL-28 melanoma
# HOP-18 NSCLC = test system: HOP-18 NSCLC
# EKVX NSCLC = test system: EKVX NSCLC
# HL-60(TB) leukemia = test system: HL-60(TB) leukemia
Compound,TGI (KM20L2 colon),TGI (HOP-62 NSCLC),TGI (HCC-2998 colon),TGI (SNB-78 CNS),TGI (U251 CNS),TGI (MALME-3M melanoma),TGI (SK-MEL-28 melanoma),TGI (HOP-18 NSCLC),TGI (EKVX NSCLC),TGI (HL-60(TB) leukemia),GI50 (KM20L2 colon) [µM],GI50 (HOP-62 NSCLC) [µM],GI50 (HCC-2998 colon) [µM],GI50 (SNB-78 CNS) [µM],GI50 (U251 CNS) [µM],GI50 (MALME-3M melanoma) [µM],GI50 (SK-MEL-28 melanoma) [µM],GI50 (EKVX NSCLC) [µM],GI50 (HL-60(TB) leukemia) [µM],GI50 (HOP-18 NSCLC) [µM]
CCCCc1c2cnccc2c(CCCC)c2c1[nH]c1ccccc12,> 100 µM,18.8 µM,> 100 µM,77.8 µM,27 µM,37.8 µM,21.7 µM,24.8 µM,36 µM,,,,,,,,,,,
O=C(Nc1ccccc1-c1nn(CN2CCNCC2)c(=S)n(CN2CCNCC2)c1=O)C(F)(F)F,,46.6 µM,33.4 µM,62.4 µM,31.7 µM,32.9 µM,33.2 µM,63.9 µM,32.2 µM,43.2 µM,,,,,,,,,,
COc1ccc(C(=O)CC2=Nc3nnc(CCCCCCCc4nnc5n4C(=O)C(CC(=O)c4ccc(OC)cc4)=N5)n3C2=O)cc1,> 100 µM,> 100 µM,> 100 µM,,> 100 µM,> 100 µM,> 100 µM,> 100 µM,> 100 µM,> 100 µM,,,,,,,,,,
CCCN(CCC)C(=O)c1nc(N)nc(-c2ccc(OC)cc2)c1-c1ccc(OC)cc1,> 100 µM,,,> 100 µM,> 100 µM,> 100 µM,> 100 µM,> 100 µM,> 100 µM,> 100 µM,,,,,,,,,,
CC1=NOC(=O)/C1=C/c1ccc([N+](=O)[O-])cc1,> 100 µM,> 100 µM,> 100 µM,> 100 µM,> 100 µM,> 100 µM,> 100 µM,> 100 µM,> 100 µM,> 100 µM,,,,,,,,,,
O=C1CNC(=O)c2[nH]cnc2N1,,,> 100 µM,> 100 µM,> 100 µM,> 100 µM,> 100 µM,> 100 µM,> 100 µM,> 100 µM,,,,,,,,,,
COC1CCC(OC)C(C2(C3CC(OC)CCC3OC)OC(=O)c3ccccc32)C1 (stereo not drawn),> 100 µM,> 100 µM,> 100 µM,> 100 µM,> 100 µM,> 100 µM,,> 100 µM,> 100 µM,45.1 µM,,,,,,,,,,
CCC1(OC(=O)CN)C(=O)OCc2c1cc1n(c2=O)Cc2cc3ccccc3nc2-1 (stereo not drawn),,0.285 µM,1.08 µM,> 100 µM,0.333 µM and 0.636 µM,0.802 µM and 3.75 µM,38.7 µM,28.4 µM,17.4 µM,0.084 µM and < 0.0132 µM,0.056,0.0946,0.175,0.53,0.0118,0.196,0.851,0.164,,
c1ccc(SC23C4C5C6C4C2C6C53)nc1 (stereo not drawn),> 100 µM,> 100 µM,> 100 µM,> 100 µM,> 100 µM,> 100 µM,> 100 µM,> 100 µM,> 100 µM,,,,,,,,,,,
COC(=O)C1CC(OC(C)=O)C=C2C(=O)CCC21 (stereo not drawn),70.1 µM,61 µM,> 100 µM,72.8 µM,80.9 µM,63.8 µM,33.8 µM,64.3 µM,,29.5 µM,,,,,,,,,,
CO[C@H]1C[C@](C)(O)Cc2cc3c(c(O)c21)C(=O)c1c(O)cc2c(c1C3=O)O[C@@H]1O[C@@]2(C)[C@H](O)[C@@H](N(C)C)[C@@H]1O,5.01 µM and 17.2 µM,2.57 µM and 1.5 µM,3.04 µM and 11.9 µM,9.66 µM and 21.8 µM,1.58 µM and 2.48 µM,3.44 µM and 13.3 µM,3.35 µM and 19.4 µM,4.3 µM and 8.6 µM,6.5 µM and 13 µM,0.797 µM and 1.64 µM,1.74,0.48,1.48,5.05,0.461,,1.62,2.4,0.159,1.29
CCCCCCCCCCCCCCCCOP(=O)([O-])OCC[N+](C)(C)C,,,,> 100 µM,,12.6 µM and 52.7 µM,14.2 µM and 58.5 µM,> 100 µM,11.1 µM and 58.6 µM,3.84 µM and 16.3 µM,,1.38,1.06,,1.05,3.1,3.65,2.63,0.897,
CCn1c2c(c3ccccc31)[C@@H](c1ccc(Cl)cc1)CC1C(=O)N(c3ccccc3)C(=O)C21 (stereo partly drawn),> 100 µM,> 100 µM,> 100 µM,> 100 µM,> 100 µM,> 100 µM,> 100 µM,> 100 µM,> 100 µM,> 100 µM,,,,,,,,,,
CC(=O)NNc1nc(C)c(C(=O)/C=C/c2ccc(Cl)cc2)s1,> 100 µM,> 100 µM,> 100 µM,> 100 µM,> 100 µM,> 100 µM,> 100 µM,> 100 µM,> 100 µM,> 100 µM,,,,,,,,,,
Cc1nc(N)nc(N)c1CCCc1ccccc1,> 100 µM,56.8 µM,39.2 µM,> 100 µM,> 100 µM,95.7 µM,86.1 µM,,> 100 µM,71.7 µM,,,,,,,,,,
Cc1ccc(S(=O)(=O)OC(COC(=O)c2ccccc2)C(OS(=O)(=O)c2ccc(C)cc2)C(OS(=O)(=O)c2ccc(C)cc2)C(COC(=O)c2ccccc2)OS(=O)(=O)c2ccc(C)cc2)cc1 (stereo not drawn),> 100 µM,> 100 µM,> 100 µM,> 100 µM,> 100 µM,> 100 µM,> 100 µM,,> 100 µM,> 100 µM,,,,,,,,,,
Cc1ccc2nc3cc(C)c(=O)cc-3sc2c1,> 100 µM,> 100 µM,> 100 µM,> 100 µM,> 100 µM,> 100 µM,> 100 µM,> 100 µM,> 100 µM,64.7 µM,,,,,,,,,,
Cc1cccc(C)c1N1C(=O)C(=O)C(c2nc3ccccc3s2)/C(=N/NC(=O)c2ccccc2O)C1=O (stereo not drawn),> 100 µM,> 100 µM,> 73.1 µM,> 100 µM,> 100 µM,> 100 µM,> 83.1 µM,88.6 µM,> 100 µM,43.1 µM,,,,,,,,,,
Cc1ccc(S(=O)(=O)c2ccc(C)cc2[N+](=O)[O-])cc1,> 100 µM,> 100 µM,> 100 µM,> 100 µM,> 100 µM,> 100 µM,> 100 µM,> 100 µM,> 100 µM,> 100 µM,,,,,,,,,,
CC(C(=O)c1ccccc1)C1(O)C(=O)Nc2ccc(Cl)cc21 (stereo not drawn),> 100 µM,> 100 µM,> 100 µM,> 100 µM,> 100 µM,> 100 µM,> 100 µM,> 100 µM,> 100 µM,,,,,,,,,,,
C/C(CC(=O)Nc1ccccc1C)=N/NS(=O)(=O)c1ccc(C)cc1,> 100 µM,> 100 µM,> 100 µM,> 100 µM,> 100 µM,> 100 µM,> 100 µM,,> 100 µM,> 100 µM,,,,,,,,,,
COc1ccc2c(c1)NC1(O)c3ccccc3C(=O)C21O (stereo not drawn),> 100 µM,> 100 µM,,> 100 µM,> 100 µM,> 100 µM,> 100 µM,> 100 µM,,> 100 µM,,,,,,,,,,
Cc1c(N)nc(C(CC(N)=O)NCC(N)C(N)=O)nc1C(=O)NC(C(=O)NC(C)C(O)C(C)C(=O)NC(C(=O)NCCc1nc(-c2nc(C(=O)NCCCNC(C)c3ccccc3)cs2)cs1)C(C)O)C(OC1OC(CO)C(O)C(O)C1OC1OC(CO)C(O)C(OC(N)=O)C1O)c1cnc[nH]1 (stereo not drawn),50 µM,1.07 µM and 3.01 µM,50 µM and > 100 µM,> 50 µM,24 µM and 56.6 µM,37.2 µM and > 100 µM,50 µM,46.8 µM,50 µM and > 100 µM,50 µM and > 100 µM,,0.0845,,,2.32,1.84,,> 100,32,
O=S(=O)(N=NC=C1c2ccccc2N(O)c2ccccc21)c1ccc(Cl)cc1,> 100 µM,> 100 µM,> 100 µM,> 100 µM,> 100 µM,> 100 µM,> 100 µM,> 100 µM,> 100 µM,> 100 µM,,,,,,,,,,
C=CCC1(C(=O)OC(C)(C)C)C(OC)=C(C(=O)OC(C)(C)C)C2C1C(C(=O)OC(C)(C)C)=C(OC)C2(CC=C)C(=O)OC(C)(C)C (stereo not drawn),,,> 100 µM,,,,> 100 µM,> 100 µM,> 100 µM,> 100 µM,,,,,,,,,,
C1CN(P2(N3CC3)=NP(N3CC3)(N3CC3)=NP(N3CC3)(N3CC3)=N2)CCO1 (stereo not drawn),> 100 µM,> 83.4 µM,> 100 µM,> 100 µM,> 100 µM,> 100 µM,> 100 µM,> 100 µM,> 100 µM,> 100 µM,,,,,,,,,,
